According to patent US11597745B2, “β-modified phosphoric acid compound precursor, β-modified phosphoric acid compound, reaction inhibitor and medicine containing the same, and method for inhibiting reaction” (priority 2018, dated 2023):

Experiments:
[1] = test system: HIV-1 (NL4-3) WT; test: Anti-HIV activity measurement, TZM-bl cells, luciferase; assay type: cell-based; conditions: for EC50: Human immunodeficiency virus 1, NL43, TZM-bl, read-out: EC50 for HIV
Procedure: (§1) TZM-bl cells were cultured in a medium in which fetal bovine serum (Japan Bio Serum) having a final concentration of 10% had been added into Dulbecco's modified Eagle's Medium (DMEM) (SIGMA/Cat. No. D5796), under the conditions of 37° C. and 5% CO2. TZM-bl cells were plated in a 96-well microplate (1.3×10^4 cells/100 μL DMEM+10% FBS). On the following day, a drug solution, and HIV-1 (NL4-3, 10 ng) were added to the culture medium in this order. After two days, […] of culture supernatant was removed, 100 μL of 1×Steady Glo (Promega/Cat. No. E2510) was added into the resultant medium, luciferase in 80 μL of scraped cell lysate was quantified with a dedicated plate (Coster/Cat. No. 3912) IESEL, VERITAS Microplate Luminometer (Promega), and the anti-HIV-1 activity (EC50) of the drug was calculated. Experiments were performed on multiple compounds by using various types of viruses. In Table (A), the “AZT” means azidothymidine, the “Lamivudine” means lamivudine, and the “Didanosine” means didanosine.

[2] = test system: HIV M184V; test: as above; assay type: cell-based, HIV-1; conditions: Human immunodeficiency virus 1, TZM-bl, read-out: EC50 for HIV
Procedure: as §1

[3] = test system: HIV M41L/T215Y; test: as above; assay type: cell-based, HIV-1; conditions: Human immunodeficiency virus 1, TZM-bl, read-out: EC50 for HIV
Procedure: as §1

[4] = test system: HIV M41L/T69SSG/T215Y; test: as above; assay type: cell-based, HIV-1; conditions: for EC50: Human immunodeficiency virus 1, TZM-bl, read-out: EC50 for HIV
Procedure: as §1

[5] = test system: HBV (genotype C) in EB-HBCe cells; test: Anti-HBV activity: HBV DNA of viral particles in culture supernatant of EB-HBCe cells by qPCR; assay type: cell-based, hepatitis B virus; conditions: FIG. 5; for anti-HBV activity (HBV DNA): various final concentrations, 9 days, activity higher at higher concentration
Procedure: A cell line EB-HBCe, which is derived from a human liver cancer cell HuH-7 and in which the HBV genome (genotype C) constantly replicates, was plated in a 24-well plate, respective compound were added at various final concentrations into the plate, and the cell line EB-HBCe was cultured for 9 days. During the culture, the medium was replaced with new one and the above compounds were added at the same concentration into the plate, every three days.
The culture supernatant was collected, the viral particles were precipitated by the addition of a PNE solution (8.45% PEG 6000, 0.445 M NaCl, 13 mM EDTA), and then the nucleic acids outside the particles were removed by the treatment with DNase I (TAKARA BIO INC.) and RNase A (TAKARA BIO INC.) at 37° C. for 1 hour. Further, after the overnight treatment with Proteinase K, the DNA was extracted with phenol/chloroform, and precipitated with ethanol. The precipitate was solubilized, and then the HBV DNA was quantitatively measured by using SYBR qPCR Mix Kit (TOYOBO CO., LTD.). In FIG. 5, the “SelenoA” indicates the results of addition of compound 13, and the “entecavir” indicates the result of addition of entecavir.

[6] = Cytotoxicity evaluation, MTT assay; assay type: cell-based; conditions: human; MT-4 cells, MTT, 5th day of culture
Procedure: (§2) In MTT assay, Celltiter 96 Non-radioactive Cell Proliferation Assay (Promega) was used. MT-4 cells were infected with HIV-1 NL4-3 at multiplicity of infection (MOI)=0.001. HIV-1-infected (37° C., 1-1.5 hours) or -uninfected MT-4 cells (2.5×10^5/ml, 100 μL) were aliquoted into a 96-well microplate (final DMSO concentration: 0.5%), and the culture was started at 37° C. and 5% CO2. On the 5th day of the culture, the culture supernatant (100 μL) was removed, 15 μL of dye solution (MTT reagent) was added into each well, and the cells were cultured in a CO2 incubator for 1 hour. Subsequently, 100 μL of solubilization solution/stop mix was added into each well, mixed sufficiently, and the obtained mixture was left to stand at 4° C. overnight. After returning the temperature of the plate to room temperature, DD570/690 was measured with a spectrophotometer (BIO-TEK ELx808, CC50).

[7] = test system: MT-4 cells; test: Cytotoxicity evaluation, MTT assay; assay type: cell-based; conditions: comparison in words from Table 1 (B)
Procedure: as §2

| Compound | EC50 [1] | EC50 [2] | EC50 [3] | EC50 [4] | anti-HBV activity (HBV DNA) [5] | anti-HBV activity, ranking among SelenoA, Pro SelenoA and Pro A ([5]; concentration of addition 10 μM) | anti-HIV activity compared with Lamivudine and Didanosine ([1]; comparison in words from Table 1 (A), all virus types) | anti-HIV activity compared with AZT ([4]; HIV-type M41L/T69SSG/T215Y, comparison in words from Table 1 (A)) | CC50 at 5 day [6] | toxicity compared with AZT [7] |
| --- | --- | --- | --- | --- | --- | --- | --- | --- | --- | --- |
| O=c1[nH]cnc2c1ncn2[C@H]1CC[C@@H](CO)O1 [Didanosine, didanosine, reference compound] | 3200 nM | 8300 nM | 5600 nM | 17000 nM | – | – | – | – | – | – |
| Nc1ccn([C@@H]2CS[C@H](CO)O2)c(=O)n1 [Lamivudine, lamivudine, reference compound] | 1200 nM | > 100000 nM | 1700 nM | 24000 nM | – | – | – | – | – | – |
| CCCSSC1[C@@H](O)[C@@H](COP(O)(=N[C@@H](C)C(=O)OC(C)C)Oc2ccccc2)O[C@H]1n1cnc2c(N)ncnc21 (some centres unmarked) [Pro A] | – | – | – | – | showed anti-HBV activity | – | – | – | – | – |
| C[Se]C1[C@@H](O)[C@@H](COP(O)(=N[C@@H](C)C(=O)OC(C)C)Oc2ccccc2)O[C@H]1n1cnc2c(N)ncnc21 (some centres unmarked) [Pro SelenoA] | 980 nM | 2000 nM | 1300 nM | 1400 nM | showed anti-HBV activity | highest anti-HBV activity among these three kinds | higher anti-HIV activity | more excellent anti-HIV activity | > 100000 nM | lower |
| Nc1ncnc2c1ncn2[C@@H]1O[C@H](CO)[C@@H](O)[C@H]1[SeH] [SelenoA, Seleno adenosine] | – | – | – | – | showed anti-HBV activity | – | – | – | – | – |
